Legend:
Cbl-b [1] = molecular target: T1, Cbl-b (Homo sapiens, UniProt Q13191); experiment: Cbl-b inhibition assay (Cbl-b activity assay, FRET, Biological Example 1; 100 mM NaCl, 60 nM Src kinase); format: biochemical; details: upper bound stated in text lists; read-out: IC50 values in the Cbl-b inhibition assay of Biological Example 1
How it was run: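 FRET read-out: loss of signal marks inhibition. Mix = biotin-Avi-Cbl-b (N-term), Src kinase, UbcH5B-Ub(Bodipy-FL, irreversible conjugate), streptavidin-Tb, assay buffer.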

T-cell [2] = experiment: CD25 cell surface staining on T-cells stimulated with anti-CD3 antibody alone (Biological Example 2); format: cell-based, human; details: T-cell, read-out: CD25 staining Anti-CD3 stimulation; for fold induction at 1 µM: 1 μM Cbl-b inhibitor; for fold induction at 8 µM: 8 μM Cbl-b inhibitor
T-cell [3] = experiment: IL-2 secretion from T-cells co-stimulated with anti-CD3 and anti-CD28 antibody (Biological Example 2); format: cell-based, human; details: Homo sapiens, T-cell, read-out: IL-2 secretion Anti-CD3/Anti-CD28 stimulation; for fold induction at 0.3 µM: 0.3 μM Cbl-b inhibitor; for fold induction at 1 µM: 1 μM Cbl-b inhibitor; for fold induction at 4 µM: 4 μM Cbl-b inhibitor
How it was run: (§1)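 T-cells were stimulated with anti-CD3 antibody alone or with anti-CD28 antibody, in the presence or absence of Cbl-b inhibitor. IL-2 secretion or CD25 surface staining was measured, and values expressed as fold over the uninhibited baseline […].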

T-cell [4] = experiment: CD25 cell surface staining on T-cells co-stimulated with anti-CD3 and anti-CD28 antibody (Biological Example 2); format: cell-based, human; details: Homo sapiens, T-cell, read-out: CD25 staining Anti-CD3/Anti-CD28 stimulation; for fold induction at 0.3 µM: 0.3 μM Cbl-b inhibitor; for fold induction at 1 µM: 1 μM Cbl-b inhibitor; for fold induction at 4 µM: 4 μM Cbl-b inhibitor
How it was run: as §1

Cbl-b [5] = molecular target: T1, Cbl-b; experiment: Cbl-b activity assay (Cbl-b inhibition assay), TR-FRET of Cbl-b interaction with UbcH5B-Ub; format: biochemical; details: assay buffer with 100 mM NaCl, 60 nM Src kinase; read-out: Cbl-b activity IC50
How it was run: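 UbcH5B (C85K) conjugated to N-terminally Bodipy-Fluorescein-labeled ubiquitin served as the fluorescent partner. After compound preincubation, Src kinase (60 nM) with 1 mM ATP and 5 mM MgCl2 (final) was added for 1.5 h, followed by a further 1 h incubation. Some values were obtained with 50 mM NaCl and 30 nM Src.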

T-cell [6] = experiment: IL-2 secretion from T-cells stimulated with anti-CD3 antibody alone (Biological Example 2); format: cell-based, human; details: T-cell, read-out: IL-2 secretion Anti-CD3 stimulation; for fold induction at 1 µM: 1 μM Cbl-b inhibitor; for fold induction at 8 µM: 8 μM Cbl-b inhibitor
[7] = fold change over baseline, primary human total T-cells
[8] = Homo sapiens, fold change over baseline (anti-CD3/anti-CD28 stimulated T-cells without inhibitor)
[9] = fold change over baseline (anti-CD3/anti-CD28 stimulated T-cells without inhibitor)

T1 sequence (Q13191 36-427): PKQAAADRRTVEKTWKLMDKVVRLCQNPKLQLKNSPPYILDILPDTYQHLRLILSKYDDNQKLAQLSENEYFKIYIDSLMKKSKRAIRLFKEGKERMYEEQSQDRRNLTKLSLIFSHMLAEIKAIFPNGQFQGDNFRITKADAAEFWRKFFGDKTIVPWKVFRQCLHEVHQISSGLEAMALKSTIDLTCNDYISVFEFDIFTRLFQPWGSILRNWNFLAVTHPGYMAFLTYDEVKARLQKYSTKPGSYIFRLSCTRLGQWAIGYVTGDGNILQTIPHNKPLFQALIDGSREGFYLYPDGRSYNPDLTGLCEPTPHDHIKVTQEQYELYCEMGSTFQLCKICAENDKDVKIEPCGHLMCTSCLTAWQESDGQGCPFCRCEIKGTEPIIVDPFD

Row | Structure (SMILES) | IC50 (Cbl-b [1]) [nM] | fold induction at 1 µM (T-cell [2]; [7]) | fold induction at 8 µM (T-cell [2]; [7]) | fold induction at 0.3 µM (T-cell [3]; [7]) | fold induction at 1 µM (T-cell [3]; [7]) | fold induction at 4 µM (T-cell [3]; [7]) | fold induction at 0.3 µM (T-cell [4]; [7]) | fold induction at 1 µM (T-cell [4]; [7]) | fold induction at 4 µM (T-cell [4]; [7]) | IC50 (Cbl-b [5]) [nM] | fold induction at 1 µM (T-cell [6]; [7]) | fold induction at 8 µM (T-cell [6]; [7]) | fold induction at 1 µM (T-cell [2]; [8]) | fold induction at 0.3 µM (T-cell [3]; [9]) | fold induction at 1 µM (T-cell [3]; [9]) | fold induction at 0.3 µM (T-cell [4]; [9]) | fold induction at 1 µM (T-cell [4]; [9]) | fold induction at 1 µM (T-cell [6]; [8])
1 | Cc1cc(C(=O)Nc2cccc(C3(Cc4nncn4C)COC3)c2)nc(C(F)(F)F)n1 [Compound 338, 6-methyl-N-(3-(3-((4-methyl-4H-1,2,4-triazol-3-yl)methyl)oxetan-3-yl)phenyl)-2-(trifluoromethyl)pyrimidine-4-carboxamide] | ≤ 100 | 0.801 to 1 | > 1 | 1.01 to 2.5 | 2.51 to 5 | > 7.5 | 1.01 to 1.3 | 1.01 to 1.3 | 1.01 to 1.3 | < 100 | 0.101 to 0.15 | > 0.201 | – | – | – | – | – | –
2 | Cc1cc(C(=O)Nc2cccc([C@H]3C[C@H]3c3nncn3C)c2)nc(C2CC2)n1 [Compound 333, 2-cyclopropyl-6-methyl-N-{3-[(1 S,2R)-2-(4-methyl-1,2,4-triazol-3-yl)cyclopropyl]phenyl}pyrimidine-4-carboxamide] | ≤ 300 | 0.801 to 1 | > 1 | 1.01 to 2.5 | 2.51 to 5 | 5 to 7.5 | 1.01 to 1.3 | 1.01 to 1.3 | 1.01 to 1.3 | 100 to 300 | 0.101 to 0.15 | > 0.201 | – | – | – | – | – | –
3 | COc1cccc2c1CN(Cc1cc3c(c(C(F)(F)F)c1)CN(c1cccc(C4(Cc5nncn5C)COC4)c1)C3=O)C2 [Example 702, 6-((4-methoxyisoindolin-2-yl)methyl)-2-(3-(3-((4-methyl-4H-1,2,4-triazol-3-yl)methyl)oxetan-3-yl)phenyl)-4-(trifluoromethyl)isoindolin-1-one] | ≤ 100 | – | – | – | – | – | – | – | – | < 100 | – | – | > 1 | 5 to 7.5 | > 7.5 | 1.51 to 1.75 | 1.51 to 1.75 | > 0.201
4 | C[C@H](Cc1nncn1C)c1cc(N2Cc3c(cccc3C(F)(F)F)C2=O)nc(C2(C)CC2)c1 [Example 681, (R)-2-(4-(1-(4-methyl-4H-1,2,4-triazol-3-yl)propan-2-yl)-6-(l-methylcyclopropyl)pyridin-2-yl)-4-(trifluoromethyl)isoindolin-1-one] | ≤ 1000 | – | – | – | – | – | – | – | – | 301 to 1000 | – | – | < 0.6 | 1.01 to 2.5 | 1.01 to 2.5 | 1.01 to 1.3 | 1.01 to 1.3 | 0.051 to 0.1
5 | CN1C[C@H]2C[C@@H]1CN2c1cc2c(c(C(F)(F)F)c1)CN(c1cccc([C@@](C)(F)C(F)(F)c3nncn3C)c1)C2=O [Example 562, 6-((1R,4R)-5-Methyl-2,5-diazabicyclo[2.2.1]heptan-2-yl)-2-(3-((R)-1,1,2-trifluoro-1-(4-methyl-4H-1,2,4-triazol-3-yl)propan-2-yl)phenyl)-4-(trifluoromethyl)-isoindolin-1-one] | ≤ 100 | – | – | – | – | – | – | – | – | < 100 | – | – | > 1 | 5 to 7.5 | > 7.5 | 1.51 to 1.75 | 1.51 to 1.75 | > 0.201

From patent publication US20220324835A1 (Nurix Therapeutics, Inc., priority 2018, published 2022)
